Tests used:
Experiment in all cases: relative viability (nuclei count vs DMSO), 5 days (fraction); higher = more cells survive
Bleomycin + Decitabine = compound: CC1=C(N=C(N=C1N)[C@H](CC(=O)N)NC[C@@H](C(=O)N)N)C(=O)N[C@@H]([C@H](C2=CN=CN2)OC3C(C(C(C(O3)CO)O)O)OC4C(C(C(C(O4)CO)O)OC(=O)N)O)C(=O)N[C@H](C)[C@H]([C@H](C)C(=O)N[C@@H]([C@@H](C)O)C(=O)NCCC5=NC(=CS5)C6=NC(=CS6)C(=O)NCCC[S+](C)C)O [Bleomycin] + Nc1ncn([C@H]2C[C@H](O)[C@@H](CO)O2)c(=O)n1 [Decitabine] (partner 2 µM); details: main component drawn
Procedure, shortened: (§1)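 Lung cancer cell lines in 1536-well plates were dosed by pin tool the day after seeding, either with one drug alone or with a fixed anchor-drug dose plus five library-drug doses (not always all listed) in √10 steps. After 5 days, cells were fixed and their nuclei stained in one step (final 0.05% Triton X-100, 1% formaldehyde, 1 ug/ml Hoechst), then counted on 4× images. Relative viability is the nuclei count in treated wells divided by that in vehicle wells. Values are medians of duplicate plates.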

Bleomycin + Vorinostat = compound: CC1=C(N=C(N=C1N)[C@H](CC(=O)N)NC[C@@H](C(=O)N)N)C(=O)N[C@@H]([C@H](C2=CN=CN2)OC3C(C(C(C(O3)CO)O)O)OC4C(C(C(C(O4)CO)O)OC(=O)N)O)C(=O)N[C@H](C)[C@H]([C@H](C)C(=O)N[C@@H]([C@@H](C)O)C(=O)NCCC5=NC(=CS5)C6=NC(=CS6)C(=O)NCCC[S+](C)C)O [Bleomycin] + O=C(CCCCCCC(=O)Nc1ccccc1)NO [Vorinostat] (partner 1 µM); details: main component drawn
Procedure, shortened: as §1

Etoposide + Lapatinib = compound: COc1cc([C@@H]2c3cc4c(cc3[C@@H](O[C@@H]3O[C@@H]5CO[C@@H](C)O[C@H]5[C@H](O)[C@H]3O)[C@H]3COC(=O)[C@H]23)OCO4)cc(OC)c1O [Etoposide] + CS(=O)(=O)CCNCc1ccc(-c2ccc3ncnc(Nc4ccc(OCc5cccc(F)c5)c(Cl)c4)c3c2)o1 [Lapatinib] (partner 2 µM)
Procedure, shortened: as §1

Etoposide + Alpelisib = compound: COc1cc([C@@H]2c3cc4c(cc3[C@@H](O[C@@H]3O[C@@H]5CO[C@@H](C)O[C@H]5[C@H](O)[C@H]3O)[C@H]3COC(=O)[C@H]23)OCO4)cc(OC)c1O [Etoposide] + Cc1nc(NC(=O)N2CCC[C@H]2C(N)=O)sc1-c1ccnc(C(C)(C)C(F)(F)F)c1 [Alpelisib] (partner 2 µM)
Procedure, shortened: as §1

Cell Line	relative viability (Bleomycin + Decitabine; first compound 0.01 µM)	relative viability (Bleomycin + Decitabine; first compound 0.03162 µM)	relative viability (Bleomycin + Decitabine; first compound 0.1 µM)	relative viability (Bleomycin + Decitabine; first compound 0.3162 µM)	relative viability (Bleomycin + Decitabine; first compound 1 µM)	relative viability (Bleomycin + Vorinostat; first compound 0.01 µM)	relative viability (Bleomycin + Vorinostat; first compound 0.03162 µM)	relative viability (Bleomycin + Vorinostat; first compound 0.1 µM)	relative viability (Bleomycin + Vorinostat; first compound 0.3162 µM)	relative viability (Bleomycin + Vorinostat; first compound 1 µM)	relative viability (Etoposide + Lapatinib; first compound 0.01 µM)	relative viability (Etoposide + Lapatinib; first compound 0.03162 µM)	relative viability (Etoposide + Lapatinib; first compound 0.1 µM)	relative viability (Etoposide + Lapatinib; first compound 0.3162 µM)	relative viability (Etoposide + Lapatinib; first compound 1 µM)	relative viability (Etoposide + Alpelisib; first compound 0.01 µM)	relative viability (Etoposide + Alpelisib; first compound 0.03162 µM)	relative viability (Etoposide + Alpelisib; first compound 0.1 µM)	relative viability (Etoposide + Alpelisib; first compound 0.3162 µM)	relative viability (Etoposide + Alpelisib; first compound 1 µM)
NCI-H2023	0.195	0.195	0.152	0.113	0.0909	0.409	0.385	0.338	0.0999	0.114	0.886	0.895	0.293	0.372	0.0709	0.597	0.615	0.543	0.388	0.138
NCI-H2085	0.558	0.551	0.418	0.421	0.339	0.777	0.721	0.679	0.378	0.386	0.777	0.73	0.534	0.599	0.372	0.882	0.939	0.824	0.552	0.35
NCI-H2087	0.261	0.27	0.229	0.144	0.183	0.441	0.76	0.329	0.0956	0.15		0.83	0.912	0.551	0.278		0.985	1.01	0.512	0.255
NCI-H2126	0.626	0.621	0.601	0.567	0.566	0.785	0.692	0.771	0.442	0.5	0.784	0.756	0.52	0.595	0.383	0.75	0.75	0.52	0.723	0.306
NCI-H2170	0.437	0.42	0.39	0.32	0.271	0.639	0.591	0.605	0.383	0.34	0.294	0.264		0.292	0.23	0.65	0.849		0.621	0.513
NCI-H2347	0.572	0.635	0.543	0.514	0.488	0.487	0.518	0.414	0.338	0.39	1.13	0.835	0.547	0.406	0.422	1.11	0.99	0.615	0.455	0.406
NCI-H2405	0.648	0.655	0.61	0.433	0.309	0.792	1	0.816	0.59	0.321	1.16	1.24	0.746	0.77	0.275	0.714	0.801	0.482	0.582	0.34
NCI-H3122	0.441	0.49	0.358	0.324	0.26	1.15	0.882	0.823	0.517	0.334	1.09	0.998	0.97	0.91	0.451	0.748	0.752	0.728	0.595	0.402
PC-3 [JPC-3]	0.806	0.69	0.704	0.621	0.547	0.788	0.928	0.737	0.46	0.417	0.432	0.487	0.344	0.475	0.374	0.946	1.05	0.833	0.984	0.777
PC-14	0.153	0.158	0.0921	0.0512	0.0367	0.414	0.406	0.198	0.0393	0.0658	0.307	0.349	0.225	0.366	0.229	0.927	1.08	1.1	0.835	0.808
RERF-LC-KJ	0.418	0.478	0.336	0.213	0.145	0.489	0.55	0.421	0.344	0.25	0.882	0.863	0.626	0.828	0.733	0.73	0.924	0.513	0.852	0.622
SK-LU-1	0.598	0.631	0.655	0.554	0.492	0.734	0.746	0.521	0.454	0.348	0.752	0.949	0.375	0.261	0.202	0.781	0.875	0.648	0.299	0.233
SK-MES-1	0.321	0.356	0.305	0.177	0.164	0.839	0.936	0.903	0.471	0.235	0.461	0.538	0.368	0.426	0.272	0.746	0.957	0.496	0.518	0.249
SW 1573	0.368	0.442	0.311	0.19	0.197	0.609	0.447	0.481	0.271	0.187	1.03	1.12	0.576	0.696	0.267	0.6	0.857	0.55	0.404	0.223
